Test results as given in patent US20130096160A1, “ARYLTHIAZOLYL PIPERIDINES AND RELATED COMPOUNDS AS MODULATORS OF SURVIVAL MOTOR NEURON (SMN) PROTEIN PRODUCTION” (Secretary, Department of Health and Human Services, priority 2010, published 2013).

How the values were obtained:
[1] = tested on: SMN2-luciferase reporter; experiment: SMN2-luciferase reporter qHTS assay; assay type: cell-based, human; conditions: SMN2-luc reporter, FIG. 1
Summary of the method: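 SMN2 exon-7 splicing firefly-luciferase reporter cell line, ~2000 cells/well in phenol-red-free DMEM with 10% serum, allowed to adhere 10–12 h, then exposed to compounds for 2 days at 37 C, 5% CO2. Seven-point five-fold dilution series (e.g. 50 μM to 3.2 nM), OneGlo luminescence read, curves fitted to Hill equation.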

[2] = tested on: SMN1-luciferase reporter; experiment: SMN1-luciferase reporter control cell line; assay type: cell-based, human; conditions: SMN1-luc reporter, FIG. 1
Excerpt: A cell-based quantitative high throughput screening (qHTS) assay is used to identify compounds able to increase SMN production. The assay uses a SMN2-luciferase reporter to determine if exon 7 of the SMN gene is expressed, which correlates with increased full-length SMN production from the SMN2 gene. As controls, a homologue SMN1-luciferase reporter cell line looks for variations in expression of the SMN1 gene and a cell line with just the luciferase reporter looks at the capacity of the compounds to inhibit luciferase. In addition, increments in SMN production by lead compounds were confirmed by Western-Blot analysis using SMA patient fibroblasts.
The SMN reporters used herein are modified from those previously described (M. L. Zhang, C. L. Lorson, E. J. Androphy and J. Zhou, An in vivo reporter system for measuring increased inclusion of exon 7 in SMN2 mRNA: potential therapy of SMA, Gene Ther 8 (2001), pp. 1532-1538.)
The sequence of the SMN1 reporter vector used herein is given in SEQ ID NO.:1, while that of the SMN2 reporter vector is given in SEQ ID NO.:2. […]

expression of SMN2 / levels of the full length SMN2 gene (in words) [1]: increases the expression of SMN2
Compound: NC(=O)C1CCN(c2nc(-c3ccc(Br)cc3)cs2)CC1 [MLS000698854]
expression of SMN1 (in words) [2]: does not affect the expression of SMN1
